{
  "source": "patent US12485110B2",
  "about": "“Use of ergothioneine for extending lifespan or improving healthspan” (NANJING NUTRABUILDING BIO-TECH CO., LTD., priority 2022, dated 2025)",
  "test_system": "C. elegans",
  "assay": "Differential gene expression by mRNA sequencing (RNA-Seq)",
  "format": "in vivo",
  "details": "for Number of genes differentially expressed above threshold: 5 mM vs control",
  "procedure": "More than 150 day-1 adult worms per replicate were harvested, cleaned by filtration, and frozen at −80° C. in Trizol. To extract RNA, samples were thawed, vigorously vortexed, and processed using the Direct-zol RNA Miniprep Kit (Zymo Research). All samples exceeded our threshold for RNA quantity and quality.\nRNA samples were submitted to Novogene Co. Ltd and subjected to more stringent QC, being tested on a Qubit for concentration and run on an agarose gel and on the Agilent 2100 to assess RNA quality and integrity.\nThe total RNA is then enriched for poly-mRNA using oligo(dT) paramagnetic beads. DNA libraries were then constructed from this input mRNA using the NEB Next Ultra™ II RNA Library Prep Kit. This creates a ready-to-sequence dsDNA library that retains the strand-specific information in the original mRNA. These libraries were then further tested by the Qubit for concentration and the Agilent 2100 for library size distribution and quality. In order to properly pool the libraries and load them onto sequencing lanes to ensure the correct number of reads per sample, an even more precise quantification of the library was done via qPCR, and the samples were loaded onto the NovaSeq 6000 platform for a paired-end sequencing run of 150 bp for each end (PE150). The loading concentrations were designed to obtain at least 6.0 Gb (which is the number of billion bases of raw data, determined by the number of reads multiplied by the length of each read).\nSequencing run data quality control was performed both by Novogene and again by inventors of this application. The raw data set was analyzed for: • 1. The distribution of base quality along the length of the sequencing read; • 2. The distribution of error rate along the length of the sequencing read; • 3. The distribution of A/T/G/C bases along the length of the sequencing read; • 4. The distribution of raw data filtering results based on the following three criteria: • a. Removing reads containing adapter sequence, • b. Remove reads with N>10% (where N means “base cannot be determined”), • c. Remove reads with a low quality (Qscore<=5) for 50% or more of its total bases.\nTo identify potential mechanisms of action through which Ergothioneine could affect aging, global gene expression was analyzed by mRNA sequencing (RNA-Seq). Both young (adult day 3) and aged (adult day 10) worms were collected from the same population of worms tested in the lifespan assay.\nDifferential gene expression was performed with EdgeR using […] likelihood ratio tests based on fitting linear models. The likelihood ratios were used to determine the p-values which were subsequently corrected for using the BH false discovery rate (fdr) method. Ultimately, differentially expressed genes (DEG) were defined as genes with an fdr-corrected p-value of 0.05 or lower, as well as a change in expression of at least 2-fold in a given between-group comparison. In this study, the comparison groups in Table 5 were used:\nReading Volcano Plots (log 2 fold change, Log FC): Positive values mean that the gene is more expressed in Treatment, and negative values mean the gene is more expressed in Control. The farther the dot is from the origin point on the x-axis, the greater the expression fold-change. Genes represented in green show a larger than 2-fold change in expression but are not deemed statistically significant due to replicate variability or low read count. Genes represented by red dots show greater than 2-fold change and expression that is statistically significant. The higher on the y-axis, the greater the calculated level of significance.",
  "key": {"[1]": {"details": "5 mM vs vehicle control, Day 10, log 2 fold change"}, "[2]": {"details": "5 mM vs. vehicle control, Day 3, log 2 fold change"}},
  "data": [
    {"smiles": "C[N+](C)(C)[C@@H](Cc1c[nH]c(=S)[nH]1)C(=O)[O-]", "note": "[Ergo, Ergothioneine]", "values": [
      {"measurement": "Number of genes differentially expressed above threshold", "setting": "Day 3, cpr-1, mtl-1, argk-1, fdr P 0.05 or lower and at least 2-fold", "value": 3},
      {"measurement": "Number of genes differentially expressed above threshold", "setting": "Day 10, F55G11.4", "value": 1},
      {"measurement": "log FC, gene C30G12.2", "setting": "[1]", "value": 0.55},
      {"measurement": "log FC, gene F55G11.4", "setting": "[1]", "value": "−1.09"},
      {"measurement": "log FC, gene K07C11.7", "setting": "[1]", "value": "−0.43"},
      {"measurement": "log FC, gene TO5E12.6", "setting": "[1]", "value": 0.62},
      {"measurement": "log FC, gene Y39B6A. 1", "setting": "[1]", "value": "−0.38"},
      {"measurement": "log FC, gene Y94H6A.10", "setting": "[1]", "value": 0.43},
      {"measurement": "log FC, gene clec-150", "setting": "[1]", "value": "−0.45"},
      {"measurement": "log FC, gene col-19", "setting": "[1]", "value": "−0.47"},
      {"measurement": "log FC, gene dod-6", "setting": "[1]", "value": 0.69},
      {"measurement": "log FC, gene dod-24", "setting": "[1]", "value": "−0.49"},
      {"measurement": "log FC, gene folt-2", "setting": "[1]", "value": "−0.49"},
      {"measurement": "log FC, gene pmp-5", "setting": "[1]", "value": "−0.64"},
      {"measurement": "log FC, gene pmt-2", "setting": "[1]", "value": "−0.38"},
      {"measurement": "log FC, gene smd-1", "setting": "[1]", "value": 0.26},
      {"measurement": "log FC, gene thn-2", "setting": "[1]", "value": 0.31},
      {"measurement": "Log FC, gene C14C6.5", "setting": "[2]", "value": "−0.59"},
      {"measurement": "Log FC, gene F16B4.4", "setting": "[2]", "value": 0.66},
      {"measurement": "Log FC, gene F28B4.3", "setting": "[2]", "value": "−0.48"},
      {"measurement": "Log FC, gene F53A9.8", "setting": "[2]", "value": "−0.73"},
      {"measurement": "Log FC, gene F57F4.4", "setting": "[2]", "value": "−0.43"},
      {"measurement": "Log FC, gene Y39B6A. 1", "setting": "[2]", "value": "−0.95"},
      {"measurement": "Log FC, gene argk-1", "setting": "[2]", "value": 1.14},
      {"measurement": "Log FC, gene col-95", "setting": "[2]", "value": "−0.56"},
      {"measurement": "Log FC, gene col-124", "setting": "[2]", "value": 1.76},
      {"measurement": "Log FC, gene cpr-1", "setting": "[2]", "value": "−2.10"},
      {"measurement": "Log FC, gene ctsa-1.2", "setting": "[2]", "value": "−0.48"},
      {"measurement": "Log FC, gene ctsa-2", "setting": "[2]", "value": 0.50},
      {"measurement": "Log FC, gene folt-2", "setting": "[2]", "value": "−0.54"},
      {"measurement": "Log FC, gene hacd-1", "setting": "[2]", "value": "−1.06"},
      {"measurement": "Log FC, gene ilys-5", "setting": "[2]", "value": "−0.57"},
      {"measurement": "Log FC, gene irg-5", "setting": "[2]", "value": 1.39},
      {"measurement": "Log FC, gene lys-7", "setting": "[2]", "value": "−0.70"},
      {"measurement": "Log FC, gene mtl-1", "setting": "[2]", "value": "−1.63"},
      {"measurement": "Log FC, gene smd-1", "setting": "[2]", "value": "−0.35"},
      {"measurement": "Log FC, gene vit-4", "setting": "[2]", "value": "−0.64"}
    ]}
  ]
}
